Measurements as given in PubChem BioAssay (NCI).
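Protocol summary: plate cells (96-well), add compound at 5 concentrations, incubate 48 h, interpolate endpoints linearly. Here, GI50 denotes the concentration required for 50% inhibition of growth. TGI: total growth inhibition.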

Assays:
Assay in all cases: NCI tumour cell line growth inhibition, 48 h
K-562 leukemia = tested on: K-562 leukemia
RPMI-8226 leukemia = tested on: RPMI-8226 leukemia
A549 NSCLC = tested on: A549 NSCLC
MOLT-4 leukemia = tested on: MOLT-4 leukemia
UACC-62 melanoma = tested on: UACC-62 melanoma
COLO 205 colon = tested on: COLO 205 colon
HCC-2998 colon = tested on: HCC-2998 colon
UACC-257 melanoma = tested on: UACC-257 melanoma
HOP-92 NSCLC = tested on: HOP-92 NSCLC
HS 578T breast = tested on: HS 578T breast

SMILES	TGI (K-562 leukemia) [µM]	TGI (RPMI-8226 leukemia) [µM]	TGI (A549 NSCLC) [µM]	TGI (MOLT-4 leukemia) [µM]	TGI (UACC-62 melanoma) [µM]	TGI (COLO 205 colon) [µM]	TGI (HCC-2998 colon) [µM]	TGI (UACC-257 melanoma) [µM]	TGI (HOP-92 NSCLC) [µM]	GI50 (RPMI-8226 leukemia) [µM]	GI50 (A549 NSCLC) [µM]	GI50 (UACC-62 melanoma) [µM]	GI50 (COLO 205 colon) [µM]	GI50 (HOP-92 NSCLC) [µM]	GI50 (HCC-2998 colon) [µM]	GI50 (UACC-257 melanoma) [µM]	GI50 (K-562 leukemia) [µM]	GI50 (MOLT-4 leukemia) [µM]	GI50 (HS 578T breast) [µM]	TGI (HS 578T breast) [µM]
O=C(Cc1nc2ccccc2s1)Nc1cccc(C(F)(F)F)c1	29.8	28.7	45.4	25.8	25.4	30.7	29.4	28.7												
NCCCNCCCCN(CCCN)/[N+]([O-])=N\O	> 100	> 100	> 100	> 100	> 100	> 100	> 100	> 100	> 100											
COc1ccc(/C=c2\sc3n(c2=O)C(N)=C(C#N)C(c2ccc(OC)cc2)C=3c2nc3ccccc3[nH]2)cc1 (stereo unspecified)	> 100	> 100	> 100	> 100	> 100	> 100	64.3	78.8	70											
Clc1ccc(C2SCc3nc4ccccc4n32)cc1Cl (stereo unspecified)	> 100	96.1	32.6	> 100	27.1	38.3			27.4											
CCCCCCCCCCCCCP(=O)(O)OCC			> 100		> 100	> 100	> 100	> 100	> 100											
CN(C)c1ccc(Nc2cc(-c3cccc(OC(F)(F)F)c3)nc3ccc(N4CCCC4)cc23)cc1		4.48	3.22		3.29	9.02	3.36	3.35	3.71	1.87	1.7	1.8	2.56	1.71	1.85	1.75				
COc1ccc(OC)c(/C=C(/C)[N+](=O)[O-])c1	> 100	3.64	17.5	> 100	4.54	3.63	3.41	3.22		0.603	4.54	2.06	1.92		1.84	1.69	2.57	3.32	3.47	22.9
C=C(Br)N(CC)CC	> 100	> 100	> 100	> 100	> 100	> 100	> 100	> 100	> 100											
C1=CC=C2NCCCNC3=CC=CC=CC3=NCCCN=C2C=C1	> 100	> 100	> 100	> 100	> 100	> 100	> 100		> 100											
COc1cc2c(cc1C)NC(=O)/C2=C\c1cccc(Oc2ccccc2)c1	39.1	24	> 100	21.8	25.4	33.5	24.4	52.3		5.02	20.6	12.5	16.6		11.6	21.7	9.83	6.23	39.1	89.8
COc1cc(Nc2ccnc(NCCCNc3ccnc4cc(Cl)ccc34)n2)cc(OC)c1	2.39	4.11	5.46	6.39	3.13	2.9	3.36	3.44	2.69	1.56	2.09	1.67	1.38	0.431	1.58	1.84	0.52	2.23		
COC(=O)CCC(=O)CC(=O)C(=O)Nc1c(Cl)cc([N+](=O)[O-])cc1Cl	> 100	88.1	> 100	> 100	> 100	> 100	> 100	> 100	> 100											
CCc1cccc(C(C)C)c1NC(=O)C(=O)C(CC(=O)Nc1ccc(Cl)c(Cl)c1)C(=O)OC (stereo unspecified)	> 100	> 100	> 100	> 100	6.77	> 100	> 100	> 100	> 100											
C[C@]1(CO)CCC[C@@]2(C)C1CC[C@H]1CC3C[C@]12CC[C@]3(C)O (stereo partly specified)	> 100	> 100	> 100	> 100	> 100	> 100	> 100	> 100	> 100											
CC(C)CCN=C(N)c1ccc(N2CCN(c3ccc(C(N)=NCCC(C)C)cc3)CC2)cc1	> 100		> 100	53.6	33.8	> 100	37.4	82.3	24.3		7.61	16.8	8.9	3.86	11.1	12.9	2.09	14.6		
CCOC(=O)C1=C(C)N(c2ccc(C)cc2)C2=C(C(=O)N(c3ccccc3)C2c2ccccc2)C1c1ccccc1 (stereo unspecified)	> 25	> 25	> 25	> 25	> 25	> 25	> 25	> 25												
CN(C)CCNC(=O)c1cccc2c1nc(-c1ccccc1)c1ccccc12	6.32		15	2.16	24.4	15.3	15.9	3.48	9.24											
Cc1cc(C)nc(NS(=O)(=O)c2ccc(Nc3c4ccc(Cl)cc4nc4c(C(=O)Nc5ccc(S(N)(=O)=O)cc5)cccc34)cc2)n1	> 100	76.5		39.7	76.6		30.9	43.9												
O=C(CCC(=O)C(C(=O)c1ccccc1)c1ccccc1)Nc1cccc(C(F)(F)F)c1 (stereo unspecified)	> 100	> 100	> 100	> 100	> 100	> 100	> 100	> 100	> 100											
COc1cc2c3c(c1OC)-c1c(ccc4c1OCO4)CC3(C#N)N(C(=O)c1ccccc1)CC2 (stereo unspecified)	> 100	> 100	> 100	> 100	> 100	> 100		> 100	77.9											
Cn1ccnc1C(=O)/C=C/c1ccccc1	6.86	8.97	11.5	15.6	21.3	18	5.38	16.2		2.91	2.98	7.46	5.38		2.36	4.07	2.74	3.35	2.39	8.6

SMILES	TGI (K-562 leukemia) [µM]	TGI (RPMI-8226 leukemia) [µM]	TGI (A549 NSCLC) [µM]	TGI (MOLT-4 leukemia) [µM]	TGI (UACC-62 melanoma) [µM]	TGI (COLO 205 colon) [µM]	TGI (HCC-2998 colon) [µM]	TGI (UACC-257 melanoma) [µM]	TGI (HOP-92 NSCLC) [µM]	GI50 (RPMI-8226 leukemia) [µM]	GI50 (A549 NSCLC) [µM]	GI50 (UACC-62 melanoma) [µM]	GI50 (COLO 205 colon) [µM]	GI50 (HOP-92 NSCLC) [µM]	GI50 (HCC-2998 colon) [µM]	GI50 (UACC-257 melanoma) [µM]	GI50 (K-562 leukemia) [µM]	GI50 (MOLT-4 leukemia) [µM]	GI50 (HS 578T breast) [µM]	TGI (HS 578T breast) [µM]
Nc1nc(-c2ccccc2)nc2c1[n+]([O-])c1ccccc1[n+]2[O-]	> 100	> 100	> 100		> 100	> 100	> 100	> 100												> 100
COC(=O)C1=C(C)NC(C)=C(C(=O)OC)C1/C=C(Cl)/C=C/c1ccccc1	54.7	> 100	> 100	41	30.8	75.6	27.2	41		32.2	28.8	16.1	30.9		14	16.8	22.8	18.4	38.4	> 100
COC(=O)CCCC(=O)O			> 100	> 100	> 100	> 100		> 100	> 100											> 100
CC1C[C@@H]2C(=O)NC(=O)[C@@H]2c2c1c1ccccc1n2C (stereo partly specified)	> 100	> 100	> 100	> 100	> 100	> 100	> 100	> 100	> 100											
COCCCNC(=O)CC(=O)NCCCOC	> 100	> 100	> 100	> 100	> 100	> 100	> 100	> 100	> 100											
CCC(=O)c1c(NOC2OC(COC(C)=O)C(OC(C)=O)C(OC(C)=O)C2OC(C)=O)nc(OC)n(C)c1=O (stereo unspecified)	> 100		> 100	> 100	> 100	> 100	> 100													
CCOC(=O)C(=Cc1ccc(Oc2ccccc2)cc1)C(=O)OCC	5.27	6.89	22.6	4.93	3.26	11.4	24	6.63	16.2											
COc1cc(OC)c(C2CC=Cc3c(OC)cc(OC)c(OC)c32)cc1OC (stereo unspecified)	> 100	> 100	> 100	> 100	> 100	> 100	> 100	> 100	> 100											
CCCCS(=O)(=O)CCC(N)C(=O)O (stereo unspecified)	> 100		> 100	> 100	> 100	> 100	> 100	> 100												> 100
CC(=O)c1ccc(NC(=O)C(=O)Nn2c(=S)[nH]c3ccccc3c2=O)cc1	> 100	> 100	> 100	> 100	> 100	> 100	> 100	> 100	> 100											
O=[N+]([O-])c1cccc(-c2oc(C=Nc3ccccc3)c([N+](=O)[O-])c2-c2cccc([N+](=O)[O-])c2)c1	> 100	> 100	> 100	> 100	> 100	> 100	> 100	> 100	> 100											
CCC1CN2CCc3c([nH]c4ccccc34)C2C[C@@H]1CC(=O)N(C)C (stereo partly specified)	> 100		> 100	> 100		> 100	> 100	> 100	> 100											
COc1cc(C2=C(C#Cc3ccccc3)COC2=O)cc(OC)c1OC	> 100	4.05	> 100	> 100	4.12	> 94.6	25.8	> 70.4	10.6	1.34	14.2	0.288	4.89	2.77	12.4	6.17	0.629	30.1		
O=C1C2C3C=CC(C2C(=O)N1COP(=O)(O)O)C1C2C(=O)N(COP(=O)(O)O)C(=O)C2C31 (stereo unspecified)	> 100	> 68.5	> 100	> 100	> 100	> 65	> 100	> 100	> 100											
COC(=O)c1c(N)n[nH]c1N	> 100	> 100	> 100	> 100	> 100	> 100	> 100	> 100	> 100											
CC1OC(OC2C(O[C@H]3CC[C@@]4(C)C(=CC[C@H]5[C@@H]6C[C@@H]7O[C@]8(CC[C@H](C)CN8)[C@@H](C)[C@@H]7[C@@]6(C)CC[C@@H]54)C3)OC(CO)C(O)C2OC2OC(CO)C(O)C(O)C2O)C(O)C(O)C1O (stereo partly specified)			34.5	42.1	32.1	31.8	32.2	33	35.5											31.2
O=C(Nc1nc2ncn(CCNCc3ccccc3)c2c(=O)[nH]1)c1ccccc1	> 100	> 100	> 100		> 100	> 100	> 100	> 100	> 100											
Cc1ccc(S(=O)(=O)OCC23CCC(CC2)C2CC23)cc1 (stereo unspecified)	> 100	87.8	> 100	> 100	> 100	> 100	> 100	> 100	87.5											
COC1OC(COCc2ccc(Cl)cc2)C(OCc2ccc(Cl)cc2)C1N=[N+]=[N-] (stereo unspecified)	> 100	> 100	16	> 100	75.7	> 100	> 100	> 100	> 100											
O=[N+]([O-])c1cccc(C2ON2C2CCCCC2)c1 (stereo unspecified)	60.3	7.98	84.5	64.7	48	32.6	30.9	49.6	89.7											
